# Data from US10632130B2, “Dehydroandrosterol and methods of using the same” (A[…], LLC, priority 2016, dated 2020).
# Where two headings read alike, the source gives them in different places.
# Key:
# human, male volunteers [1] = tested on: human, male volunteers
# Experimental: Two human, male volunteers were selected to pre-trial the DHA material by single daily oral administration. Both were of mature age, not naive to various exogenously supplied androgens, and in good general health. Food and exercise routine was not modified from normal during the testing period, so as to avoid introduction of confounding variables.
# Doses were ramped 50 mg weekly, beginning at 50 mg and concluding at 200 mg.
# One of the test subjects (Subject #2) took a two week washout after this initial testing regiment and resumed testing at 100 mg, ramping the dose weekly as prior but using 100 mg increments, such that at four weeks of testing the subject was using 400 mg.
# After another two week washout period, Subject #2 elected to resume testing of DHA with another related compound, androsterone, at various doses. Over several more months, this DHA/androsterone ratio was altered over a range and maintained at various ratios for not less than five days at a time before modification.
# goats = tested on: goats
# Experimental: Caprine studies were also performed in two test animals. The test animals selected were monozygous male twins, castrated and placed in separate pens not later than six weeks after birth.
# At approximately three months of age, one of these two goats was selected to receive daily DHA in a single, bolus, oral dose. The other goat was not given DHA, and served as the control. All parameters were equalized (pen size, ambient temperature, once daily exercise for 15 minutes on tread mill, 30 minute “play” time with other goats, twice daily ad-lib feeding of identical source feed, etc.)
# Dosing was initiated in the test goat at 50 mg. After two weeks, the dose was increased to 100 mg, then after another two weeks increased to 200 mg, then maintained at that dose for an additional four weeks.
# At the end of the eight week testing period, the two test animals were weighed to establish gains made from their original base-line weight at the beginning of the study.
# [2] = testosterone as comparative standard; estimated; cited from earlier work
# human, male volunteers [3] = tested on: human, male volunteers; remark: listed apart in the source
# Source text: Two human, male volunteers were selected to trial the encapsulated DHA material by daily oral administration. They were allowed to select their own serving schedules and serving sizes (within reason of extrapolated values), provided they be consistent and document the compliance of their regimens. Both were of mature age, not naive to various exogenously supplied androgens, and in good general health. Food and exercise routine was not modified from normal during the testing period, so as to avoid introduction of confounding variables.
# In particular, Trial Participant #1 was a person who took five capsules a day (100 mg/day DHA) of the composition for sixteen weeks. […] Trial Participant #2 was a person who took four capsules a day (80 mg/day DHA) of the composition for six weeks.
# [4] = Trial Participant #2, 80 mg/day DHA, six weeks
structure (smiles),measurement,setting,value
"C[C@]12CC[C@H]3[C@@H](CC=C4C[C@H](O)CC[C@@]43C)[C@@H]1CC[C@@H]2O [DHA, 5-Androsten-3a,17b-diol]",androgenic synergism with androsterone,"human, male volunteers [1]; Subject #2, extended testing, co-administered androsterone over a wide dose range",punctuated androgenic synergism
same,dose dependence of effects,"human, male volunteers [1]; both test subjects",proportional to dose in a fairly linear fashion
same,"parameters associated with enhanced androgen status (muscle hardness/fullness, strength)","human, male volunteers [1]; both test subjects",distinct improvements
same,side-effects characteristic of exogenous hormones,"human, male volunteers [1]; both test subjects, acne only noted at the higher doses tested",mild acne being the only undesirable effect
same,"subjective improvements, as defined by weight, strength, and/or muscle hardness gain","human, male volunteers [1]; both test subjects, one month, oral doses ramped 50 mg weekly from 50 mg to 200 mg",subjective improvements
same,reported effects of consumer use,,"increases in strength, lean muscle gains, increased fat loss, appetite increase, libido boost, increased energy, and increased muscle hardness"
same,reported side effects,consumer use,slight acne and slight lethargy
same,male behavior in castrate male,goats; test goat in play pen with superior goats,Alpha-male behavior was indeed noted to be established
same,appetite and food intake,goats; test goat versus control,greater appetite and food intake
same,weight gain relative to control goat,"goats; test goat, eight weeks",approximately double
same,general weight gain,"goats; test goat, eight weeks, from base-line 46 pounds, control 33%",59%
same,weight at end of testing,"goats; test goat, eight weeks, oral 50 mg, then 100 mg, then 200 mg daily, start weight 46 pounds, control 61 pounds",73 pounds
same,relative androgenic activity equivalent to that of testosterone,[2],approximately 43%
same,weight gained,"human, male volunteers [3]; Trial Participant #1, 100 mg/day DHA, sixteen weeks",fifteen
same,bench press at the end,"human, male volunteers [3]; Trial Participant #1, 100 mg/day DHA, sixteen weeks, 270 pounds at the beginning",340
same,single repetition leg squats at the end,"human, male volunteers [3]; Trial Participant #1, 100 mg/day DHA, sixteen weeks, 430 pounds at the beginning",545 pounds
same,deadlift at the end,"human, male volunteers [3]; Trial Participant #1, 100 mg/day DHA, sixteen weeks, 455 pounds at the beginning",560 pounds
same,improvement of all major lifting measurements from start to finish,"human, male volunteers [3]; [4]",20-25 pounds
same,weight gained,"human, male volunteers [3]; [4]",twelve
